Experimental data from patent US11077199B2, “Albumin binding peptide conjugates and methods thereof” (Massachusetts Institute of Technology, priority 2017, dated 2021).

Assays:
[1] = test system: CD44hi H-2Db gp100 tetramer+ CD8+ T cells; experiment: Immunization with ABP-antigen constructs, tetramer staining of peripheral blood; assay type: in vivo, C57BL6/J mice; conditions: for percentage CD44hi tetramer+ of total live CD8+ T cells: 5 nmol with 25 ug c-di-GMP adjuvant, prime day 0, boost day 14, peripheral blood day 21, mean response
Text: To test whether these albumin-binding peptides could enhance vaccination, a model melanoma antigen called gp100 was utilized. Vaccination against gp100 has shown significant preclinical activity (van Stipdonk, M. J. B. et al. Design of agonistic altered peptides for the robust induction of CTL directed towards H-2Db in complex with the melanoma-associated epitope gp100. Cancer research 69, 7784-7792, doi:10.1158/0008-5472.CAN-09-1724 (2009)) and has also been used clinically (Schwartzentruber, D. J. et al. gp100 Peptide Vaccine and Interleukin-2 in Patients with Advanced Melanoma. New England Journal of Medicine 364, 2119-2127, doi:10.1056/NEJMoa1012863 (2011)). An altered peptide ligand form of gp100 called EGP (sequence
To test the immunogenicity of ABP-modified peptides, C57BL6/J mice (Jackson Laboratories) were immunized with 5 nmol either ABP-G4S-EGP, ABP-PEG2000-EGP, or unmodified EGP peptide. Vaccines were formulated with 25 ug c-di-GMP (Invivogen) for adjuvant in 100 uL total volume (with sterile saline as diluent). Mice were primed on day 0, boosted on day 14, and tetramer staining was performed on day 21 to assess T cell priming in peripheral blood. (FIG. 5). Briefly, blood was isolated retro-orbitally, subjected to lysis to remove red blood cells, and incubated with tetramer (H-2Db gp100, MBL) at room temperature for 30 minutes, followed by surface staining for CD8 and CD44. DAPI was included as a viability marker, and cells were run on the LSR Fortessa (BD Biosciences). Responses were quantified as the percentage CD44^hi tetramer+ of total live CD8+ T cells. […] (FIG. 6).

MHC (H2-Db) = molecular target: T1, MHC (H2-Db) (Mus musculus, UniProt P01899); conditions: H2-Db epitope; van Stipdonk et al. 2009; cited from earlier work
T1 sequence (P01899 25-362): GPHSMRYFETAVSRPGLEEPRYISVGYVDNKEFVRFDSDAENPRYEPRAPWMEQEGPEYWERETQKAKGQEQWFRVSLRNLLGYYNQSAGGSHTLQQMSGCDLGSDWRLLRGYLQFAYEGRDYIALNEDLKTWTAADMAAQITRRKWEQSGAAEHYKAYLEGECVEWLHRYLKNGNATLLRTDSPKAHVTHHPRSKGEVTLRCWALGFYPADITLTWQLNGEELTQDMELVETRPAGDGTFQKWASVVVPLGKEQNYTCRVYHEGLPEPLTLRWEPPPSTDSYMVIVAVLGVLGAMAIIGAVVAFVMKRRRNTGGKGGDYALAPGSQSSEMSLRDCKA
T1 sequence (P01887 21-119 partner): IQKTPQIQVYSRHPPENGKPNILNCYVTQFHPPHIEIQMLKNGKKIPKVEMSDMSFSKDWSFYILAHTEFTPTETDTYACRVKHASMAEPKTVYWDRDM

Sequence | percentage CD44hi tetramer+ of total live CD8+ T cells [1] [%] | response compared with background in unimmunized mice ([1]; day 21 tetramer staining, background 0.82%) | affinity for MHC relative to native form (EGS) (MHC (H2-Db)) | fold higher response than unmodified peptide ([1]; CD44hi tetramer+ of live CD8+ T cells, day 21, relative to unmodified EGP peptide)
AVGALEGPRNQDWLGVPRQL (Synthetic EGP long peptide) [unmodified EGP peptide, altered peptide ligand form of melanoma antigen gp100] | 1.45 | not statistically different from background | enhanced affinity for MHC over the native form | –
DICLPRWGCLWGGGGSAVGALEGPRNQDWLGVPRQL [ABP-G4S-EGP] | 5.56 | – | – | approximately 4 fold
